Experimental data as given in paper PMC6407917, “Identification of GSK3186899/DDD853651 as a Preclinical Development Candidate for the Treatment of Visceral Leishmaniasis” (Journal of Medicinal Chemistry, 2018).

Experiments:
Test in all cases: biochemical
Parameters in all cases: species or system HEK293/K-562/placenta mixed human extract; Kinobeads chemoproteomic competition binding, quantified by TMT LC-MS/MS, dose response up to 20 uM
[1] = biological target: ILK (Homo sapiens, UniProt Q13418)
[2] = biological target: CHEK2 (Homo sapiens, UniProt O96017)
[3] = biological target: LATS2 (Homo sapiens, UniProt Q9NRM7)
[4] = biological target: AZI2 (Homo sapiens, UniProt Q9H6S1)
[5] = biological target: PRKAG1 (Homo sapiens, UniProt P54619)
[6] = biological target: MET (Homo sapiens, UniProt P08581)
[7] = biological target: RPS6KA4 (Homo sapiens, UniProt O75676)

Measured: IC50

Chain of PRKAG1 (P54619 whole entry): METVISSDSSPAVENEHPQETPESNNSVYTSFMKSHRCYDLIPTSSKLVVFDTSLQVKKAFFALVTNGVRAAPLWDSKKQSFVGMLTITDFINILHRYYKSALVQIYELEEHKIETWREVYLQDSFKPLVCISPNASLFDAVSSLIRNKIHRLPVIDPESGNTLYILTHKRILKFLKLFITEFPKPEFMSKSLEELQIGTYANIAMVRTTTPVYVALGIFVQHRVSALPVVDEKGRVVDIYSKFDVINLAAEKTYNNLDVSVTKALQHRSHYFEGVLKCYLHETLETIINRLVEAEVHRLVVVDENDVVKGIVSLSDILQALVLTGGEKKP
Chain of LATS2 (Q9NRM7 whole entry): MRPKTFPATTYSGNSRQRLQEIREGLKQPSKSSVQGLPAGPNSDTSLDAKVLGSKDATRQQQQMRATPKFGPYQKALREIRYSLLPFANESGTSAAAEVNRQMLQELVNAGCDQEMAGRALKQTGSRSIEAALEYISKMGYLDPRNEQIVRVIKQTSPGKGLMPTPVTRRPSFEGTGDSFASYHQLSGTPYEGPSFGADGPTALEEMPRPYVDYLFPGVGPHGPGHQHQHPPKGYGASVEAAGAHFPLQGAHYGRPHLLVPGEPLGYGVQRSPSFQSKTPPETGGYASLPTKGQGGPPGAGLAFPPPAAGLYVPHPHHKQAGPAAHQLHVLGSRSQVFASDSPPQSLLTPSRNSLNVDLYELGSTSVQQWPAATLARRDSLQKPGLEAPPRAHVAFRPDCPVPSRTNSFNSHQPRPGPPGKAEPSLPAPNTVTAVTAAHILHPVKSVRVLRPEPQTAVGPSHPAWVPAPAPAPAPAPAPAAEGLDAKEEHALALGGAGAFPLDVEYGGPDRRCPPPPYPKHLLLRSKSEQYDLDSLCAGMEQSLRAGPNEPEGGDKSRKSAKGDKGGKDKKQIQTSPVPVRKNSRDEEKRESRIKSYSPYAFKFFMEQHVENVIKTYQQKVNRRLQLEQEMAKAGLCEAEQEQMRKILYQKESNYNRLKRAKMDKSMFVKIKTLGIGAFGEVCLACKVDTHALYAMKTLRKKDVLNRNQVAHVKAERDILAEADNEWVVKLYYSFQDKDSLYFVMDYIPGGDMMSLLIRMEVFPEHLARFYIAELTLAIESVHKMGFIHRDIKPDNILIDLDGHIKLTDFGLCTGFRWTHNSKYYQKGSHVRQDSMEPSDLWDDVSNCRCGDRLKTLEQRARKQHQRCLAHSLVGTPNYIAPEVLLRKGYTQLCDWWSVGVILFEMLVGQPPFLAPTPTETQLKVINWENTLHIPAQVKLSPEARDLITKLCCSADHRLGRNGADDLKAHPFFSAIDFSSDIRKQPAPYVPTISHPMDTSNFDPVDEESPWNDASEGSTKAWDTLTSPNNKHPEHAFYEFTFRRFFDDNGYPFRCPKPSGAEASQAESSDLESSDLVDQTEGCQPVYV
Chain of MET (P08581 whole entry): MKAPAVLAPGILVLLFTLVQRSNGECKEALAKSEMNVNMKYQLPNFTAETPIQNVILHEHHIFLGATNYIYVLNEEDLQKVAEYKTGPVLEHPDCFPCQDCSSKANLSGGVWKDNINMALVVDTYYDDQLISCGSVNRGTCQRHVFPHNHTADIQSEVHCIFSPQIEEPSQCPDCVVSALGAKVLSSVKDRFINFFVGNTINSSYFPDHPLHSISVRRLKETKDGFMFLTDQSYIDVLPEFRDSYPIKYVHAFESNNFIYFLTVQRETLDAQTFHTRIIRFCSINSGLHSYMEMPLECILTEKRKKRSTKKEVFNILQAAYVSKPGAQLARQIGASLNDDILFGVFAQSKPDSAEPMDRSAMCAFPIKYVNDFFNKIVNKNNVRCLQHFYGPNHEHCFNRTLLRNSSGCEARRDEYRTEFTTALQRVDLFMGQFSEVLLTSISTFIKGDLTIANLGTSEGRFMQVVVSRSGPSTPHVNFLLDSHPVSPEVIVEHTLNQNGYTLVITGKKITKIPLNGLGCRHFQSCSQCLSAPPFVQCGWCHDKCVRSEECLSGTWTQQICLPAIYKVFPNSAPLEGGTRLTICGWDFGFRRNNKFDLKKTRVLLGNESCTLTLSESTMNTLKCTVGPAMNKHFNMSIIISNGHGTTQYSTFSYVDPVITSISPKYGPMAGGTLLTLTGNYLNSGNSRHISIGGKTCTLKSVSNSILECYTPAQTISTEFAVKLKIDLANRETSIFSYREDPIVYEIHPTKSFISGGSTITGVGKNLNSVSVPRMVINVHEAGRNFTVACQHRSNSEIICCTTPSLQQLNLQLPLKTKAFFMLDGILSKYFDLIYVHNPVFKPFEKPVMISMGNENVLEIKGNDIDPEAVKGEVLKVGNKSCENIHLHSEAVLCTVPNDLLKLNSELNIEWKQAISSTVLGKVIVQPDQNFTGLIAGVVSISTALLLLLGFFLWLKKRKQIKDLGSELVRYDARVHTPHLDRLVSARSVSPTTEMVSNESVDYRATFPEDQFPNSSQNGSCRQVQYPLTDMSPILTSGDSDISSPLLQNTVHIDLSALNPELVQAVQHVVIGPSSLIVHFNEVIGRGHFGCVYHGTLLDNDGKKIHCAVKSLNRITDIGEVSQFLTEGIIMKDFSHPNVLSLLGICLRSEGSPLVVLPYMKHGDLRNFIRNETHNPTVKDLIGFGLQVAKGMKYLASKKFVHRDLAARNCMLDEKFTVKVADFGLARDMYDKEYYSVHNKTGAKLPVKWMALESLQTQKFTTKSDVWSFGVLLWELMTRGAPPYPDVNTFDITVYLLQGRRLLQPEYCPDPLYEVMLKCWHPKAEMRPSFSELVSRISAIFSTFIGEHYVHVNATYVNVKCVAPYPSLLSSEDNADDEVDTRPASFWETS
Chain of CHEK2 (O96017 whole entry): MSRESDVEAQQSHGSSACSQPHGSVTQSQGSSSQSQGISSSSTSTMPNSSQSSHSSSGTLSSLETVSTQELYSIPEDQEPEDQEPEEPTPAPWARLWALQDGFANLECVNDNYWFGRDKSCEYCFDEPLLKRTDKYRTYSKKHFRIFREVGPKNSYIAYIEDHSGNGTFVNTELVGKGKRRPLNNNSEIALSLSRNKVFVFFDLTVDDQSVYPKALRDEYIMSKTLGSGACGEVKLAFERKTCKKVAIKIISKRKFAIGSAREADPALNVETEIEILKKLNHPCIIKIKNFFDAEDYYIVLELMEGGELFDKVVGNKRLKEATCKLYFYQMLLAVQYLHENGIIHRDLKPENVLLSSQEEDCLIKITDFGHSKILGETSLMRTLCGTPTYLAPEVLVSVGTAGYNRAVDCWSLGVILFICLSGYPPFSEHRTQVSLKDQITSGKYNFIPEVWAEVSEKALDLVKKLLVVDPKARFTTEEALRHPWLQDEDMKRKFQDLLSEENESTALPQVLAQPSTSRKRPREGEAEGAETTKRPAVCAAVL
Chain of AZI2 (Q9H6S1 whole entry): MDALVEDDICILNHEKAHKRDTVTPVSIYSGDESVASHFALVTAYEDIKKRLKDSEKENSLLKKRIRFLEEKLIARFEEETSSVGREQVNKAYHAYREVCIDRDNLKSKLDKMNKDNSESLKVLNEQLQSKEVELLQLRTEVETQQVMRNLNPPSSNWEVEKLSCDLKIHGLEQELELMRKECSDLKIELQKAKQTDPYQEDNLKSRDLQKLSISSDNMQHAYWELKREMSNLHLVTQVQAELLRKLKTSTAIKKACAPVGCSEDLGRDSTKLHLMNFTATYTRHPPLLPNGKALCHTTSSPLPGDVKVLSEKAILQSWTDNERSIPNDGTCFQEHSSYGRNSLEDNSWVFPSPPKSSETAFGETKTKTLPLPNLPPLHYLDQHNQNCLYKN
Chain of RPS6KA4 (O75676 whole entry): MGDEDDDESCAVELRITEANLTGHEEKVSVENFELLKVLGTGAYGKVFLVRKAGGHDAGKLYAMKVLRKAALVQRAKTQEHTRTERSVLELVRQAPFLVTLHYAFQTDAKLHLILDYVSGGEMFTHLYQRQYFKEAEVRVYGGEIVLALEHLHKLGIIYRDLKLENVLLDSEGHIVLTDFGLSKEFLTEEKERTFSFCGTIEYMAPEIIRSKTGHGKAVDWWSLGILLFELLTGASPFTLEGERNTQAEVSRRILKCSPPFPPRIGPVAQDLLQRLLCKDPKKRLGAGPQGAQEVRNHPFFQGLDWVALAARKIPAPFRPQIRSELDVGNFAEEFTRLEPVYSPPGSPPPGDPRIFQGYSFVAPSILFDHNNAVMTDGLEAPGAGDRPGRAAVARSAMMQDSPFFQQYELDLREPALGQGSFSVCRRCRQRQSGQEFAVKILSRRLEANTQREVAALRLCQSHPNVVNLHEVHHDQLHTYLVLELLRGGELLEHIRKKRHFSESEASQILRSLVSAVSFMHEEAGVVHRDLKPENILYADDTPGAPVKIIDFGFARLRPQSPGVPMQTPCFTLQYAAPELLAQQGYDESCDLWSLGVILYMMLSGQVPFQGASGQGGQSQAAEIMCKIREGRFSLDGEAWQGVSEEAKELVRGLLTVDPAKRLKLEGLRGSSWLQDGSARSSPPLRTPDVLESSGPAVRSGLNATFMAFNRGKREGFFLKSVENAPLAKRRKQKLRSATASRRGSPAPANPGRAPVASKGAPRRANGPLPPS
Chain of ILK (Q13418 whole entry): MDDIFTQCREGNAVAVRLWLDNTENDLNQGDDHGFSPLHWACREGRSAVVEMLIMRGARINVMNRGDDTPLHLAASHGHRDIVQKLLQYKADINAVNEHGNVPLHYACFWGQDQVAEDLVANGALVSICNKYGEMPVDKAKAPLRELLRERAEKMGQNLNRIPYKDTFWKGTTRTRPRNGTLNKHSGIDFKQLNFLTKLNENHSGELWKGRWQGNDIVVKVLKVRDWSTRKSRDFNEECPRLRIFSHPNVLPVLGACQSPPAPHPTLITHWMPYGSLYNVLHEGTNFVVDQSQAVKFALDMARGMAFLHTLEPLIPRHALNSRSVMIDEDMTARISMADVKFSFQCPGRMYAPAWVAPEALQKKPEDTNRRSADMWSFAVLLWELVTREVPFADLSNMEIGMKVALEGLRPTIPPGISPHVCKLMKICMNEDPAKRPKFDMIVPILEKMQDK

COc1ccccc1-c1n[nH]c2nc(N[C@H]3CC[C@H](NS(=O)(=O)CCC(F)(F)F)CC3)nc(OC)c12 [compound 31, 3,3,3-Trifluoro-N-(trans-4-((4-methoxy-3-(2-methoxyphenyl)-1H-pyrazolo[3,4-d]pyrimidin-6-yl)amino)cyclohexyl)propane-1-sulfonamide]
≥ 20 µM: all assays above
